Laboratory results as given in publication PMC6332508, “A Promising PET Tracer for Imaging of α7 Nicotinic Acetylcholine Receptors in the Brain: Design, Synthesis, and in Vivo Evaluation of a Dibenzothiophene-Based Radioligand” (Molecules, 2015).

How the values were obtained:
[1] = Metabolite analysis in pig plasma; type: in vivo, pigs
Procedure: To control the quality of the K[^18F]F-Kryptofix®222/K2CO3-complex, reactions using ethylene glycol ditosylate were performed randomly. Radio-TLC of [^18F]10a and [^18F]10b was performed on Polygram® ALOX N/UV254 plates (Macherey-Nagel GmbH & Co. KG) with dichloromethane/methanol (9:1, v/v). The spots of the references were visualized using UV light at 254 nm.
Arterial blood was sampled using a peristaltic pump during the first 20 min of the scan followed by manual sampling at 25, 30, 40, 50, 60, 90, 120, 150, 180, 210, and 240 min after injection. Plasma was obtained by centrifugation (13,000 rpm, 2 min at 21 °C) and total radioactivity concentration was measured using a gamma-counter (1470 Wizard; PerkinElmer, Shelton, CT, USA) cross-calibrated to the PET scanner. […]
The plasma input function was corrected for the presence of radioactive metabolites by determination of the parent fraction as described previously. Plasma samples were de-proteinized by addition of ice-cold acetonitrile (500 μL MeCN/100 μL plasma) followed by centrifugation (13,000 rpm, 10 min). Aliquots of the original plasma sample and of the supernatant obtained after centrifugation were counted for radioactivity, and the supernatant was analyzed by radio-HPLC following the chromatographic methods described in quality control. The parent fraction as a function of time was fitted iteratively with the Levenberg-Marquardt algorithm, including decay correction, to calculate metabolite corrected input function.

[2] = Distribution coefficient, shake-flask method, n-octanol/PBS; type: physicochemical; conditions: n-octanol/phosphate-buffered saline; n-octanol-PBS, pH 7.2, shake-flask, n = 3; read-out: log D7.2
Procedure: in vitro radiochemical stability of [^18F]10a was investigated in 0.9% NaCl solution, PBS (pH 7.2), and 0.01 M Tris-HCl (pH 7.4 at 21 °C) at 40 °C and in EtOH at room temperature for up to 90 min. Samples were taken at 15, 30, 60, and 90 min of incubation time and analyzed by radio-TLC and radio-HPLC. Log D7.2 of [^18F]10a was experimentally determined in n-octanol/phosphate-buffered saline (PBS; 0.01 M, pH 7.2) at room temperature by the shake-flask method in multiple distribution. Measurement was performed twice in triplicate.

O=S1(=O)c2ccc([18F])cc2-c2ccc(N3CCN4CCC3CC4)cc21 [[^18F]10a]
Parent fraction of total radioactivity in plasma ([1]; 2 min p.i.): 88% | Parent fraction of total radioactivity in plasma ([1]; 60 min p.i.): 24% | Parent fraction of total radioactivity in plasma ([1]; 120 min p.i.): 19% | logD [2]: 1.3 ± 0.1
